One test relates to athymic nude mice. As to the kind of experiment: DIVAA with angioreactors, Example 2 (peptides in matrigel). The conditions noted are these: for concentration range at which angiogenesis begins: equimolar comparison, FIG. 4G. Type of test: in vivo. The protocol:
Analysis and quantitation of angiogenesis was done using DIVAA as previously described (Martinez et al., J. Natl. Cancer Inst., 21; 94(16):1226-37, 2002; Guedez et al., Am. J. Pathol. 162, 1431-1439, 2003). Briefly, 10 mm long surgical-grade silicone tubes with only one end open (angioreactors) were filled with 20 μl of matrigel alone or mixed with AM, bFGF, VEGF, PAMP, and/or PAMP(12-20) at the indicated concentrations. Human lung cancer cell lines (see below) were also premixed with matrigel alone or in combination with PAMP(12-20) at 10,000 cells per angioreactor. After the matrigel solidified, the angioreactors were implanted into the dorsal flanks of anesthetized athymic nude mice (NCI colony). After eleven days, the mice were injected intravenously with 25 mg/ml FITC-dextran (100 μl/mouse, Sigma) 20 minutes before removing the angioreactors. Photographs of the implants were taken for visual examination of angiogenic response. Quantitation of neovascularization in the angioreactors was determined as the amount of fluorescence trapped in the implants and was measured in a HP Spectrophotometer (Perkin Elmer).
To further characterize this observation, an […] assay was employed that allows for more precise quantitation of angiogenic properties: the directed […] angiogenesis assay or DIVAA (Martinez et al., J. Natl. Cancer Inst., 21; 94(16): 1226-37, 2002; Guédez et al., Am. J. Pathol. 162, 1431-1439, 2003). The assay involves implanting small silicone capsules carrying the test substances under the skin of nude mice. After eleven days, the mice are injected with a specific amount of FITC-dextran, and the volume of blood circulating through the implant is quantified by measuring the fluorescence in the capsule. In addition, the new blood vessels growing into the silicone tube can be seen directly by transparency (FIG. 4A-F). […] The extent of the angiogenic response can be seen clearly when this response is compared with the negative control (FIG. 4A). The angiogenic response elicited by PAMP was dose-dependent (FIG. 4C-G). When compared to AM and VEGF responses at equimolar concentrations, a clear difference was observed.

The subject of test [1] is Human dermal microvascular endothelial cells. Description: Calcium measurements (ATP-induced calcium flux). It counts as cell-based. As to conditions: 10 nM PAMP, 1 mM ATP. The protocol: Human dermal microvascular endothelial cells were obtained from Cell Applications, Inc. and cultured in 96-well plates at 1.0×10^5 cells per well. The cells were loaded for 60 minutes at room temperature with the fluorescent dye FLIPR (Molecular Devices) and then transferred to the FlexStation II (Molecular Devices) for analysis. The test compounds were prepared in another plate at a concentration of 5× and were added to the proper wells by the robotic arm of the FlexStation II. Fluorescence was measured every five seconds in each well and recorded. One mM ATP (Sigma) was used as a calcium agonist (Lau et al., Life Sci. 73, 20 19-2028, 2003).

The next test deals with human endothelial cells. Description: Cord formation assay on matrigel. The conditions noted are these: overnight incubation on matrigel, FIG. 6C. Type of test: cell-based. The protocol:
Human endothelial cells were seeded at 2.0×10^5 cells per well over a solid layer of matrigel covering the bottom of a 24-well plate in the presence or absence of the test peptides as described (Nam et al., Phytother. Res. 17, 107-111). After an overnight incubation, the tubular structures were photographed (three pictures per well) and the number of knots per photographic field were counted as a measure of lattice complexity.

As to Adrenomedullin [AM], the “concentration range at which angiogenesis begins” value (“concentration range” for short) in the test on athymic nude mice is listed as “nanomolar concentrations”.
As for “proadrenomedullin N-terminal 20 peptide (ARLDVASEFRKKWNKWALSR; listed as Homo sapiens) [PAMP, 20 amino-acid molecule originating from the post-translational processing of pre-proadrenomedullin; synthetic human, purchased from Bachem]”, the “effect on ATP-induced calcium response” value in test [1] is reported as “greatly reduced”. Besides, the “dose dependence of angiogenic response” value in the test with athymic nude mice (FIG. 4C-G) is on record as “dose-dependent”. The “concentration range” value with athymic nude mice is recorded as “femtomolar range”. For the same substance, the “concentrations eliciting an angiogenic response” value in the test with athymic nude mice (implants 11 days under the skin of nude mice) is on record as not below 1 femtomols/L. In the test with human endothelial cells, the “efficiency in inducing cord formation (knots per field)” value was “modest effect”.
On to “vascular endothelial growth factor [VEGF]”, for which the “concentration range” value in the test on athymic nude mice was “nanomolar concentrations”. In the test with human endothelial cells, the “efficiency in inducing cord formation (knots per field)” value was “most efficient”.

Source of the values: patent US7862815B2, “Methods for inhibiting angiogenesis with inhibitors of proadrenomedullin N-terminal 20 peptide (PAMP)” (The United States of America as represented by the …, priority 2002, dated 2011).
